Assay results as given in ChEMBL document CHEMBL3593183, “Polycyclic Polyprenylated Xanthones from Symphonia globulifera: Isolation and Biomimetic Electrosynthesis” (J Nat Prod, 2015).

Tested on: HCT-116
Experiment: Cytotoxicity against human HCT116 cells after 72 hrs by MTS assay
Type: functional, cell-based
Conditions: HCT-116, 72 h

SMILES	IC50
CC(C)=CCC[C@]1(C)[C@@H](CC=C(C)C)C[C@@]2(CC=C(C)C)C(=O)c3c(oc4cc(O)c(O)cc4c3=O)[C@]1(CC=C(C)C)C2=O	8 µM
CC(C)=CCC[C@]1(C)[C@@H](CC=C(C)C)C[C@]2(CC=C(C)C)C(=O)[C@@]1(CC=C(C)C)C(=O)c1c2oc2cc(O)c(O)cc2c1=O	3 µM
